Read-outs that look alike come from different tables or passages of the source.
Assays:
[1] = target: recombinant human Mcl-1 (residues 171-327) / Bim interaction (Homo sapiens (Human), UniProt Q07820); assay: biochemical; assay type: binding; conditions: read-out: Mcl-1 HTRF IC50
[2] = test system: human multiple myeloma cell line, OPM-2; assay: Cell viability assay (OPM-2 10 FBS), CellTiter-Glo; assay type: cell-based
Method in brief: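 Steps: plate cells at 3000/well in 10% FBS growth medium, add serially diluted compound, incubate 16 h at 37 °C with 5% CO2, add detection reagent and read luminescence after 25 min. A 4-parameter logistic model gives IC50.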

[3] = TR-FRET, Mcl-1(171-327) / biotin-Bim (51-76)
[4] = Homo sapiens, OPM-2, 16 h, read-out: OPM-2 10% FBS IC50 IP, OPM-2 cells, 10% FBS, 16 h, CellTiter-Glo
[5] = read-out: OPM-2 10% FBS IC50 IP, OPM-2 cells, 10% FBS, 16 h, CellTiter-Glo
[6] = 0.1 nM Mcl-1(171-327), 0.05 nM biotin-Bim (51-76)
[7] = Homo sapiens, OPM-2, 16 h, read-out: OPM-2 10% FBS IC50 IP, OPM-2 cells, 10% FBS, 16 h incubation

Sequence of recombinant human Mcl-1 (residues 171-327) / Bim interaction (Q07820 171-327): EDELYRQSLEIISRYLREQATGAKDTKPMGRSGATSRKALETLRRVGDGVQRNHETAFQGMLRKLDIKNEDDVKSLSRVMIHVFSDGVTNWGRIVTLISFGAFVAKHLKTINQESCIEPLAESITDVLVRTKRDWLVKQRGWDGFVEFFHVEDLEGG

SMILES: C[C@@H]1[C@@H](C)CCCC2(OCCO2)[C@@H]2CC[C@H]2CN2C[C@@]3(CCCc4cc(Cl)ccc43)COc3ccc(cc32)C(=O)NS1(=O)=O [Example 100102, (3′R,6′R,11′S,12′R,22′S)-6″-chloro-11′,12′-dimethyl-3″,4″-dihydro-2″H,15′H-dispiro[1,3-dioxolane-2,7′-[20]oxa[13]thia[1,14]diazatetracyclo [14.7.2.0~3,6~.0~19,24~]pentacosa[16,18,24]triene-22′,1″-naphthalen]-15′-one 13′,13′-dioxide]
- IC50 [1, 3]: 0.99 nM
- IC50 [2, 4]: 1430 nM

SMILES: C[C@@H]1[C@@H](C)CCC[C@@](O)(CS(=O)(=O)N(C)C)[C@@H]2CC[C@H]2CN2C[C@@]3(CCCc4cc(Cl)ccc43)COc3ccc(cc32)C(=O)NS1(=O)=O [Example 100099, 1-((1S,3′R,6′R,7′S,11′S,12′R)-6-chloro-7′-hydroxy-11′,12′-dimethyl-13′,13′-dioxido-15′-oxo-3,4-dihydro-2H-spiro[naphthalene-1,22′-[20]oxa[13]thia[1,14]diazatetracyclo [14.7.2.0~3,6~.0~19,24~]pentacosa[16,18,24]trien]-7′-yl)-N,N-dimethylmethanesulfonamide]
- IC50 [1]: 0.659 nM
- IC50 [2, 5]: 349 nM

SMILES: C[C@@H]1[C@@H](C)C/C=C/[C@](O)([C@H](O)C(=O)N(C)C)[C@@H]2CC[C@H]2CN2C[C@@]3(CCCc4cc(Cl)ccc43)COc3ccc(cc32)C(=O)NS1(=O)=O [Example 100290, (2S)-2-((1S,3′R,6′R,7′R,8′E,11′S,12′R)-6-chloro-7′-hydroxy-11′,12′-dimethyl-13′,13′-dioxido-15′-oxo-3,4-dihydro-2H-spiro[naphthalene-1,22′-[20]oxa[13]thia[1,14]diazatetracyclo [14.7.2.0~3,6~.0~19,24~]pentacosa[8,16,18,24]tetraen]-7′-yl)-2-hydroxy-N,N-dimethylethanamide]
- IC50 [1, 3]: 0.116 nM
- IC50 [2, 4]: 259 nM

SMILES: COCC[C@@H]1[C@@H](C)C/C=C/[C@@](CN2CCN(C(C)C)CC2)(OC)[C@@H]2CC[C@H]2CN2C[C@@]3(CCCc4cc(Cl)ccc43)COc3ccc(cc32)C(=O)NS1(=O)=O [Example 188, (1S,3′R,6′R,7′R,8′E,11′S,12′R)-6-chloro-7′-methoxy-12′-(2-methoxyethyl)-11′-methyl-7′-((4-(1-methylethyl)-1-piperazinyl)methyl)-3,4-dihydro-2H,15′H-spiro[naphthalene-1,22′-[20]oxa[13]thia[1,14]diazatetracyclo [14.7.2.0~3,6~.0~19,24~]pentacosa[8,16,18,24]tetraen]-15′-one 13′,13′-dioxide]
- IC50 [1, 6]: 0.084 nM
- IC50 [2, 7]: 38 nM

SMILES: C[C@@H]1[C@@H](C)C/C=C/[C@](O)(c2cnccn2)[C@@H]2CC[C@H]2CN2C[C@@]3(CCCc4cc(Cl)ccc43)COc3ccc(cc32)C(=O)NS1(=O)=O [Example 100383, (1S,3′R,6′R,7′R,8′E,11′S,12′R)-6-chloro-7′-hydroxy-11′,12′-dimethyl-7′-(2-pyrazinyl)-3,4-dihydro-2H,15′H-spiro[naphthalene-1,22′-[20]oxa[13]thia[1,14]diazatetracyclo [14.7.2.0~3,6~.0~19,24~]pentacosa[8,16,18,24]tetraen]-15′-one 13′,13′-dioxide]
- IC50 [1, 3]: 0.264 nM
- IC50 [2, 4]: 3430 nM

SMILES: C[C@@H]1[C@@H](C)CCC[C@@]2(CC(N(C)C)=NO2)[C@@H]2CC[C@H]2CN2C[C@@]3(CCCc4cc(Cl)ccc43)COc3ccc(cc32)C(=O)NS1(=O)=O [Example 100197, (1S,3′R,6′R,7′R,11′S,12′R)-6-chloro-3″- (dimethylamino)-11′,12′-dimethyl-3,4-dihydro-2H,4″H,15′H-dispiro[naphthalene-1,22′-[20]oxa[13]thia[1,14]diazatetracyclo [14.7.2.0~3,6~.0~19,24~]pentacosa[16,18,24]triene-7′,5″-[1,2]oxazol]-15′-one 13′,13′-dioxide]
- IC50 [1, 3]: 0.774 nM
- IC50 [2, 4]: 2460 nM

SMILES: CO[C@]1(CN2CCN3C[C@H](C)OC[C@@H]3C2)/C=C/C[C@H](C)[C@@H](C)S(=O)(=O)NC(=O)c2ccc3c(c2)N(C[C@@H]2CC[C@H]21)C[C@@]1(CCCc2cc(Cl)ccc21)CO3 [Example 146, (1S,3′R,6′R,7′R,8′E,11′S,12′R)-6-chloro-7′-methoxy-11′,12′-dimethyl-7′-(((3S,9aS)-3-methylhexahydropyrazino[2,1-c][1,4]oxazin-8(1H)-yl)methyl)-3,4-dihydro-2H,15′H-spiro[naphthalene-1,22′-[20]oxa[13]thia[1,14]diazatetracyclo [14.7.2.0~3,6~.0~19,24~]pentacosa[8,16,18,24]tetraen]-15′-one 13′,13′-dioxide]
- IC50 [1, 6]: 0.337 nM
- IC50 [2, 7]: 150 nM

SMILES: CO[C@@]1(C)/C=C/C[C@H](C)[C@@H](CCN2CCOCC2)S(=O)(=O)NC(=O)c2ccc3c(c2)N(C[C@@H]2CC[C@H]21)C[C@@]1(CCCc2cc(Cl)ccc21)CO3 (single isomer, unassigned) [Example 100595]
- IC50 [1, 3]: 0.157 nM
- IC50 [2, 5]: 133 nM

SMILES: C[C@H](C(=O)N(C)C)[C@]1(O)/C=C/C[C@H](C)[C@@H](C)S(=O)(=O)NC(=O)c2ccc3c(c2)N(C[C@@H]2CC[C@H]21)C[C@@]1(CCCc2cc(Cl)ccc21)CO3 [Example 100125, (2S)-2-((1S,3′R,6′R,7′S,8′E,11′S,12′R)-6-chloro-7′-hydroxy-11′,12′-dimethyl-13′,13′-dioxido-15′-oxo-3,4-dihydro-2H-spiro[naphthalene-1,22′-[20]oxa[13]thia[1,14]diazatetracyclo [14.7.2.0~3,6~.0~19,24~]pentacosa[8,16,18,24]tetraen]-7′-yl)-N,N-dimethylpropanamide]
- IC50 [1, 3]: 0.43 nM
- IC50 [2, 4]: 555 nM

SMILES: CO[C@@]1(CN2CCN(C3(C#N)COC3)CC2)/C=C/C[C@H](C)[C@@H](C)S(=O)(=O)NC(=O)c2ccc3c(c2)N(C[C@@H]2CC[C@H]21)C[C@@]1(CCCc2cc(Cl)ccc21)CO3 [Example 272, 3-(4-(((1S,3′R,6′R,7′S,8′E,11′S,12′R )-6-chloro-7′-methoxy-11′,12′-dimethyl-13′,13′-dioxido-15′-oxo-3,4-dihydro-2H-spiro[naphthalene-1,22′-[20]oxa[13]thia[1,14]diazatetracyclo [14.7.2.0~3,6~.0~19,24~]pentacosa[8,16,18,24]tetraen]-7′-yl)methyl)-1-piperazinyl)-3-oxetanecarbonitrile]
- IC50 [1, 6]: 0.144 nM
- IC50 [2, 7]: 137 nM

SMILES: C[C@@H]1[C@@H](C)CCC[C@](C#N)(NC(=O)c2ccccc2)[C@@H]2CC[C@H]2CN2C[C@@]3(CCCc4cc(Cl)ccc43)COc3ccc(cc32)C(=O)NS1(=O)=O [Example 100255, N-((1S,3′R,6′R,7′S,11′S,12′R)-6-chloro-7′-cyano-11′,12′-dimethyl-13′,13′-dioxido-15′-oxo-3,4-dihydro-2H-spiro[naphthalene-1,22′-[20]oxa[13]thia[1,14]diazatetracyclo [14.7.2.0~3,6~.0~19,24~]pentacosa[16,18,24]trien]-7′-yl)benzamide]
- IC50 [1, 3]: 14.4 nM
- IC50 [2, 4]: 5020 nM

SMILES: CC[C@@H]1CC/C=C/[C@@](CN2CCN3CCCC[C@@H]3C2)(OC)[C@@H]2CC[C@H]2CN2C[C@@]3(CCCc4cc(Cl)ccc43)COc3ccc(cc32)C(=O)NS1(=O)=O [Example 32, (1S,3′R,6′R,7′R,8′E,12′R)-6-chloro-12′-ethyl-7′-methoxy-7′-((9aR)-octahydro-2H-pyrido[1,2-a]pyrazin-2-ylmethyl)-3,4-dihydro-2H,15′H-spiro[naphthalene-1,22′-[20]oxa[13]thia[1,14]diazatetracyclo [14.7.2.0~3,6~.0~19,24~]pentacosa[8,16,18,24]tetraen]-15′-one 13′,13′-dioxide]
- IC50 [1, 6]: 0.128 nM
- IC50 [2, 7]: 147 nM

Reference: patent US10821115B2, “Compounds that inhibit Mcl-1 protein” (priority 2017, dated 2020)
